In publication PMC4188773 (Cell calcium, 2014):
Converted amounts (≈) assume the structure as drawn. “And” between values parts separate entries of the source, which are not always exact repeats. Equal values may be shown once. “Also recorded” adds a separate entry of the source.

Key:
[1] = molecular target: T1, mouse eugenol OR (mOR-EG) (Mus musculus, UniProt Q920P2); test: mOR-EG/PLC Ca2+ imaging: mOR-EG + Gα15 in HEK293T cells; format: cell-based; details: for decay time 90% to 10%, PLC-dependent Ca2+ response / time of peak, PLC-dependent Ca2+ response / time to rise 10% to 90%, PLC-dependent Ca2+ response: saturating response parameters
T1 sequence (Q920P2 1-313): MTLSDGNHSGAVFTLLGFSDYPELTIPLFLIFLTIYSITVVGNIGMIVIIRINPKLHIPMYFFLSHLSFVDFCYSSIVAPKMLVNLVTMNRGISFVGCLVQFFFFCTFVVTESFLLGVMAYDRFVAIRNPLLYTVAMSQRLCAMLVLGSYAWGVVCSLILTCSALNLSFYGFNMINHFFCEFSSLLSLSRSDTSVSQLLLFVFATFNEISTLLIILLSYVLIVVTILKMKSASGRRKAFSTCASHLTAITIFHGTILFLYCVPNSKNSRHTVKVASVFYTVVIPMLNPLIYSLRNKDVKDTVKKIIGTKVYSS

[2] = pH7; source not stated; cited from earlier work
[3] = molecular target: T1, mouse eugenol OR (mOR-EG); test: dual read-out assay, mOR-EG/PLC and mOR-EG/AC responses compared; format: cell-based; details: for functional bias between PLC and AC pathways (in words): pair-wise comparison of EC50 values; for AC-/PLC- mediated Ca2+ response (result in words): both read-outs, up to 1-5 mM
[4] = molecular target: T1, mouse eugenol OR (mOR-EG); test: mOR-EG/AC Ca2+ imaging: mOR-EG + Gαolf + CNGC-camp in HEK293T cells; format: cell-based; details: for decay time 90% to 10%, AC-dependent Ca2+ response / time of peak, AC-dependent Ca2+ response / time to rise 10% to 90%, AC-dependent Ca2+ response: saturating response parameters
[5] = source not stated; cited from earlier work

Row | Structure (SMILES) | decay time 90% to 10%, PLC-dependent Ca2+ response [1] [s] | time of peak, PLC-dependent Ca2+ response [1] [s] | time to rise 10% to 90%, PLC-dependent Ca2+ response [1] | solubility [2] [mM] | functional bias between PLC and AC pathways (in words) [3] | decay time 90% to 10%, AC-dependent Ca2+ response [4] [s] | time of peak, AC-dependent Ca2+ response [4] [s] | time to rise 10% to 90%, AC-dependent Ca2+ response [4] [s] | logP [5] | AC-/PLC- mediated Ca2+ response (result in words) [3] | also measured
1 | CCOc1cc(C=O)ccc1O [ethyl vanillin] | 52.3 ± 4.8 | 22.6 ± 1.5 | 9.5 ± 0.8 s | 11 (≈ 1830 µg/mL) | activated both pathways with similar EC50 values | 115.7 ± 10.8 | 91.6 ± 5.8 | 36.9 ± 3.3 | 1.7 | – | EC50 [1]: 1490 µM; EC50 [4]: 2170 ± 131 µM
2 | COc1cc(C=O)ccc1O [vanillin] | 48 ± 2.9 | 18.6 ± 0.9 | 8.3 ± 0.5 s | 28 (≈ 4260 µg/mL) | activated both pathways with similar EC50 values | 101.7 ± 2.6 | 85.3 ± 2.9 | 31.4 ± 1.3 | – | – | –
3 | CC(=O)CCc1ccc(O)cc1 [raspberryketone, raspberry ketone] | – | – | – | – | – | – | – | – | – | no effects | AC-/PLC- mediated Ca2+ response (result in words) ([3]; listed as raspberry ketone): failed to activate any response
4 | CCC(C)(C)C1CCC(=O)CC1 [orivone] | 47.6 ± 4.1 | 29.8 ± 2.3 | 8 ± 1 s | – | activated both pathways with similar EC50 values | 101 ± 5 | 94.9 ± 5.3 | 36.4 ± 2.6 | – | – | –
5 | CC(C)(C)c1ccc(O)cc1 [4-tert-butylphenol] | – | – | – | – | – | – | – | – | – | failed to activate any response; also recorded: no effects | –
6 | C/C=C/c1ccc2c(c1)OCO2 [isosafrole] | – | – | – | 0.6 (≈ 97.3 µg/mL) | – | – | – | – | 3.9 | failed to activate any response; also recorded: non agonist, antagonist (*) | –
7 | CC(C)c1ccc(O)cc1 [4-isopropylphenol] | – | – | – | 15 (≈ 2040 µg/mL) | – | – | – | – | 3 | failed to activate any response; also recorded: no effects | –
8 | C=C(C)[C@@H]1CCC2=CC(=O)C[C@@H](C)[C@]2(C)C1 [nootkatone] | – | – | – | 0.24 (≈ 52.4 µg/mL) | – | – | – | – | 3.8 | failed to activate any response; also recorded: no effects | –
9 | COC(=O)c1c(C)cc(O)c(C)c1O [mousse cristal] | 74 ± 4 | 30.7 ± 1.4 | 14.1 ± 0.8 s and 14 ± 1 s | – | biased activation of the PLC pathway; also recorded: strongly activating both pathways yet with a different apparent affinity | 117.6 ± 5.3 | 107.3 ± 2.4 | 32.6 ± 1.6 | 10/2.8 | full agonist for mOR-EG | potency in mOR-EG/PLC signaling in comparison to mOR-EG/AC signaling ([3]; ratio of EC50 values): more than 2 fold; faster Trise of mOR-EG/AC response than eugenol [4]: 30%; normalized peak magnitude, mOR-EG/AC response ([4]; normalized to eugenol): 1.12±0.13
